Columns and labels:
Histone deacetylase 8 = target: T1, Histone deacetylase 8 (Homo sapiens, UniProt Q9BY41)
T1 sequence (Q9BY41 whole entry): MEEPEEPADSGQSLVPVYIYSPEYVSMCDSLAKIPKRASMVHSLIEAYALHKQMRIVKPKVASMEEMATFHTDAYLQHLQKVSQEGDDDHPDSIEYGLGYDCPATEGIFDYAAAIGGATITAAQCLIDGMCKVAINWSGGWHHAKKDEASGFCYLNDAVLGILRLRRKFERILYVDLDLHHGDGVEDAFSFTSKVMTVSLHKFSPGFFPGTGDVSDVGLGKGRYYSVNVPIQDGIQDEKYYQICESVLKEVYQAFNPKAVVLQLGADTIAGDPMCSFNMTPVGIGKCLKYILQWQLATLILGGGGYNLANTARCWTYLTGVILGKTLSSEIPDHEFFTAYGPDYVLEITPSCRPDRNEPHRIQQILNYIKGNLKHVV

Histone deacetylase 4 = Histone deacetylase 4 (Homo sapiens, UniProt P56524)
Sequence of Histone deacetylase 4 (P56524 whole entry): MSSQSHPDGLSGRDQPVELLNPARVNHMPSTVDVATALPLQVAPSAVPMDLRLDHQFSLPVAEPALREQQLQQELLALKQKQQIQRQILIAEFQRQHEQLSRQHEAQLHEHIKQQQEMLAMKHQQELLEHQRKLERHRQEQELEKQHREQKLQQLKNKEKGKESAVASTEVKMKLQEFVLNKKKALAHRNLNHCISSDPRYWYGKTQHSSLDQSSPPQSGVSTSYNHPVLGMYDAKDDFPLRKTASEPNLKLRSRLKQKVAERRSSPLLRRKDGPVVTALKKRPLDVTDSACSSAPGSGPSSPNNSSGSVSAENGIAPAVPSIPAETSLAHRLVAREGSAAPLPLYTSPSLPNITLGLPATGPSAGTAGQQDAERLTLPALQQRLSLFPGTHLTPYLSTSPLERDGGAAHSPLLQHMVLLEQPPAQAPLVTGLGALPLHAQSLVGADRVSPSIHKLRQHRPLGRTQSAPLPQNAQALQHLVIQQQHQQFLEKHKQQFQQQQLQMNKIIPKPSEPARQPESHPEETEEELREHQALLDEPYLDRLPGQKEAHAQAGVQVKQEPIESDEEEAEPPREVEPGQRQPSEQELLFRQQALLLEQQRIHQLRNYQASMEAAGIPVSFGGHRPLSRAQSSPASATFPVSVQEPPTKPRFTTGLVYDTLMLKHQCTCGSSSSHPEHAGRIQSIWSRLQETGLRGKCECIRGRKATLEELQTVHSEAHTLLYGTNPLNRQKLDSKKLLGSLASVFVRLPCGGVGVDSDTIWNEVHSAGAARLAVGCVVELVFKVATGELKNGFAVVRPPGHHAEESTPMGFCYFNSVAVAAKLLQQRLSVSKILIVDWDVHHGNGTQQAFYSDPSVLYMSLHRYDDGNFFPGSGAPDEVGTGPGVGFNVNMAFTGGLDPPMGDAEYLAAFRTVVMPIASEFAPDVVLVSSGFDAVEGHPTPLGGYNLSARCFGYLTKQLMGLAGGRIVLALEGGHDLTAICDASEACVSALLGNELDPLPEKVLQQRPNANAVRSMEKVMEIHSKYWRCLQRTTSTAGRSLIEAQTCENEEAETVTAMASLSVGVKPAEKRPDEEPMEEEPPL

Histone deacetylase 5 = Histone deacetylase 5 (Homo sapiens, UniProt Q9UQL6)
Sequence of Histone deacetylase 5 (Q9UQL6 whole entry): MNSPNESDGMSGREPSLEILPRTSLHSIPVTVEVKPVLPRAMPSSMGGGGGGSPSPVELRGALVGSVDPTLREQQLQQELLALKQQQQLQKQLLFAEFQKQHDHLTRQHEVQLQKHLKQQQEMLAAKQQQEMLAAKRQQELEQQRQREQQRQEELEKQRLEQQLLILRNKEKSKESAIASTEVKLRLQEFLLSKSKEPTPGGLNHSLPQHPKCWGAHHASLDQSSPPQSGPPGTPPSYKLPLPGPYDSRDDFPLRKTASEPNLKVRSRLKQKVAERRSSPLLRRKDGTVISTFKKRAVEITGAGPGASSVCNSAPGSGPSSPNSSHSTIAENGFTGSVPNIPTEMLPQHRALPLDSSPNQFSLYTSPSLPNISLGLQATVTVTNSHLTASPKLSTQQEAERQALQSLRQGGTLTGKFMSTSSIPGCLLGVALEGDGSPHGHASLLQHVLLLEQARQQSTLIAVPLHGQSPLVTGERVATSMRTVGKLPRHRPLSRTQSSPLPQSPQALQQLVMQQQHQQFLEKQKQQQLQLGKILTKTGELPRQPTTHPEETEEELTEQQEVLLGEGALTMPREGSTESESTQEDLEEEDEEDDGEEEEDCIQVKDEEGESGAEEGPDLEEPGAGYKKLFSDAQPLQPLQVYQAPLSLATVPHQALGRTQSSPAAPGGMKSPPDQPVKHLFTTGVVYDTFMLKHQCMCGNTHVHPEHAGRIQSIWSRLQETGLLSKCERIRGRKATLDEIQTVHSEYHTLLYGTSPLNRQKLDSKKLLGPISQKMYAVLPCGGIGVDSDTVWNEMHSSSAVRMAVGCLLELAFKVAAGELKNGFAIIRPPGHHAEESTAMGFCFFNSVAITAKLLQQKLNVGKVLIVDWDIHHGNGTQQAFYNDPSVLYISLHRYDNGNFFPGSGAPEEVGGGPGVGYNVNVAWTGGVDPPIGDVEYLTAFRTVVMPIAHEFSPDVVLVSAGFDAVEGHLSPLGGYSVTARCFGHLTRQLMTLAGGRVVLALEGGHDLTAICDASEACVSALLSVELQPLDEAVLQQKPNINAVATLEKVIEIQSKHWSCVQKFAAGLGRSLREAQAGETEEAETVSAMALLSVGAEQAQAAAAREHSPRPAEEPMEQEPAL

Histone deacetylase 7 = Histone deacetylase 7 (Homo sapiens, UniProt Q8WUI4)
Sequence of Histone deacetylase 7 (Q8WUI4 whole entry): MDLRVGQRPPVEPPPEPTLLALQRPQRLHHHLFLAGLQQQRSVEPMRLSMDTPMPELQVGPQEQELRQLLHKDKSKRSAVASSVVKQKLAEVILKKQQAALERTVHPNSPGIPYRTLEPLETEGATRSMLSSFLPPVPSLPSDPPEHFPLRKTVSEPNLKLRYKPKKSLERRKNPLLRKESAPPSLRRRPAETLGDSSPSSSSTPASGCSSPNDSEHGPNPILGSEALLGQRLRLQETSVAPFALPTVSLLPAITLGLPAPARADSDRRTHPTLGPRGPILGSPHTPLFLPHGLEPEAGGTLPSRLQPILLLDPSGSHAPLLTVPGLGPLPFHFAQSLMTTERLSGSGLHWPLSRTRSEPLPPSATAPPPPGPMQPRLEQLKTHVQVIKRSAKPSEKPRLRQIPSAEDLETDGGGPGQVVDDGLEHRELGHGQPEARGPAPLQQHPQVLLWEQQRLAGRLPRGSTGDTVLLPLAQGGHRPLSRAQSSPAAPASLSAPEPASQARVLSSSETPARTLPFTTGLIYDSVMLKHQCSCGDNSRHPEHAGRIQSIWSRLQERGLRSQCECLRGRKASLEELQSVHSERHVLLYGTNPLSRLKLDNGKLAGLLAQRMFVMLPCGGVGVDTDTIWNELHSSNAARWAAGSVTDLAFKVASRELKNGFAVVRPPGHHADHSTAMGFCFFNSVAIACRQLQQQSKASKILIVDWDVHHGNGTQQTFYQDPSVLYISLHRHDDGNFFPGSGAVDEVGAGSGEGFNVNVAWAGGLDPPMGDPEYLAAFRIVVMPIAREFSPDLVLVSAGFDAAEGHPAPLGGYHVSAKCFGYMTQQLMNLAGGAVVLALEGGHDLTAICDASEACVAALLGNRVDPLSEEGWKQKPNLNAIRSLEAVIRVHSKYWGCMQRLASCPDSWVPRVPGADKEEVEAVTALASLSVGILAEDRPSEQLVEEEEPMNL

Measured: IC50

CC(=O)Nc1ccc(C(=O)Nc2cc(-c3cccs3)ccc2N)cc1
> 20 µM: all assays above
